According to publication PMC4116177, “Rational Modification of Estrogen Receptor by Combination of Computational and Experimental Analysis” (PLoS ONE, 2014):

Tests used:
M421F-ERα ^LBD = target: T1, M421F-ERα ^LBD (Homo sapiens, UniProt P03372, M421F); experiment: PolarScreen competitive binding assay (fluorescence polarization) with M421F mutant
T1 construct: The polypeptide fragment 303-547 of the human ERα has been thus cloned; made in house; host or cells: E. coli Rosetta 2(DE3)pLysS
T1 sequence (P03372 303-547 M421F): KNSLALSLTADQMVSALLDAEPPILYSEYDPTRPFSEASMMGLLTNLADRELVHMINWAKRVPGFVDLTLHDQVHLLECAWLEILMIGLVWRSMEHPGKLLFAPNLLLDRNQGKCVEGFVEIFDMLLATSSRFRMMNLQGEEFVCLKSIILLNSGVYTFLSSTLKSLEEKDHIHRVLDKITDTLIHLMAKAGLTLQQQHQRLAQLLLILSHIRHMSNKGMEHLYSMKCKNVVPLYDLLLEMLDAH
Experimental: (§1) The PolarScreen assay was used to test the ligand binding affinity of wt-ERα ^LBD and its mutants towards different classes of estrogen disrupting compounds.
(§2) Each compound was tested in a range of 12 concentrations with the ER receptors (Figure 5). The compounds concentrations (X axis) were plotted in a logarithmic scale against the Polarization values (Y axis). The plot of compounds concentrations against Polarization were fitted with a one site competition […] logistic curve (see Materials and Methods for further details).
(§3) To test the binding affinity of the recombinant receptor for EDCs we used the competitive binding assay developed by Life Technologies for ERα, the PolarScreen Estrogen Receptor-α Competitor Green Assay.
(§4) The full length ERα provided with the kit was replaced by our recombinant ERα ^LBD. In short, wt or mutant ERα ^LBD are added to the Fluormone and incubated at 4°C for 45 minutes to form the receptor-Fluormone complex. This complex is then mixed and incubated at 25°C for 2 h with the individual EDCs and the intensity of the fluorescence polarization signal (directly proportional to the amount of Fluormone bound to the protein) measured. The addition of competitors displaces the Fluormone from the ERα ^LBD receptor, resulting in a decreased fluorescence signal. The fluorescence polarization anisotropy signal (P) is read using an Infinite 200 Pro multimode plate reader from Tecan and calculated with the following equation: [drawing 1]
The P data (y) were fitted against the competitor concentrations (x) with a typical one site competition three parameters logistic curve: [drawing 2]
LogIC50 = Log of the concentration of test compound required to reduce the maximum polarization value by 50%. All the resulting IC50 values are obtained by the average of at least four different experiments.

wt-ERα ^LBD = target: T2, wt-ERα ^LBD (Homo sapiens, UniProt P03372); experiment: PolarScreen competitive binding assay (fluorescence polarization) with wt-ERα LBD
T2 construct: The polypeptide fragment 303-547 of the human ERα has been thus cloned; made in house; host or cells: E. coli Rosetta 2(DE3)pLysS
T2 sequence (P03372 303-547): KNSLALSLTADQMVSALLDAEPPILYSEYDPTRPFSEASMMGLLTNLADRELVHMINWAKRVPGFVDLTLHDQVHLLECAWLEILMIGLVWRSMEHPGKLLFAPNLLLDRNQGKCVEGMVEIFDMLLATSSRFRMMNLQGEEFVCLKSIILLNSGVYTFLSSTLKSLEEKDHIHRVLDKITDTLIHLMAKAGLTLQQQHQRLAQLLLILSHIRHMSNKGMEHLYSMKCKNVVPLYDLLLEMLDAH
Experimental: as §1, §2, §3
as §4, with “In short, wt or mutant ERα ^LBD are added to the Fluormone and incubated at 4°C for 45 minutes to form the receptor-Fluormone complex.” left out, “1] […]” for “1]”

M421I-ERα ^LBD = target: T3, M421I-ERα ^LBD (Homo sapiens, UniProt P03372, M421I); experiment: PolarScreen competitive binding assay (fluorescence polarization) with M421I mutant
T3 construct: The polypeptide fragment 303-547 of the human ERα has been thus cloned; made in house; host or cells: E. coli Rosetta 2(DE3)pLysS
T3 sequence (P03372 303-547 M421I): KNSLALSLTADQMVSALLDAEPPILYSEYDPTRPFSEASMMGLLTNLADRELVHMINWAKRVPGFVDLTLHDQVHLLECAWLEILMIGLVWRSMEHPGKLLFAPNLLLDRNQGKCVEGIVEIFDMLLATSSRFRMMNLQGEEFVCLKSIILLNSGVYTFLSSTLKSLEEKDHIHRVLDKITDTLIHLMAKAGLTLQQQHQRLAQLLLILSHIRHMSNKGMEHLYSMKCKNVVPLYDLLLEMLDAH
Experimental: as §1, §2, §3
as §4, with “In short, wt or mutant ERα ^LBD are added to the Fluormone and incubated at 4°C for 45 minutes to form the receptor-Fluormone complex.” left out, “1] […]” for “1]”

[1] = Thermal unfolding followed by CD spectroscopy at 222 nm; type: physicochemical
Experimental: The thermal stability of the different ERs was assessed by following the protein thermal unfolding between 25 and 90°C with CD spectroscopy (Figures 3D, 3E and 3F). The unfolding process is not reversible: by cooling back the samples to 25°C only around 50% of the original secondary structure of the protein is recovered (data not shown). By fitting the experimental data with a Boltzmann-type equation it was possible to calculate melting temperature (Tm) values of 59.5±1.5°C, 65.8±1.4°C, and 61.5±1.3°C for the wt-ERα ^LBD, M421F-ERα ^LBD, and M421I-ERα ^LBD proteins, respectively.
Circular dichroism spectra were recorded with a J750 Circular dichroism spectrometer from Jasco interfaced with a Peltier temperature control unit with 1 mm path length cuvette. Analysis of the far-UV region (185–260 nm) was used to investigate the secondary structure and the folding of the protein. CD spectra were analyzed with the DichroWeb online software, by means of the CDSSTR program. Thermal denaturation experiments were performed by monitoring the circular dichroism at 222 nm while changing the temperature from 25 to 90°C (1°C/min) and backward. Reference spectra were collected for the buffers in which proteins were dissolved. Denaturation curves were analyzed assuming a two-state unfolding model and melting temperature (Tm) was calculated for every mutant. […]

## CCCCCCCCCc1ccc(O)cc1 [4-Nonylphenol]
M421F-ERα ^LBD
  IC50: 4 ± 2 µM
M421F-ERα ^LBD; M421F versus wt
  IC50 of M421F-ERα ^LBD compared to wt-ERα ^LBD (in words): twice as strong
wt-ERα ^LBD
  IC50: 8 ± 1 µM
M421I-ERα ^LBD
  IC50: 60 ± 30 µM

## CC(C)(c1ccc(O)cc1)c1ccc(O)cc1 [Bisphenol-A]
M421F-ERα ^LBD; from IC50 values, M421F versus wt
  binds more strongly to M421F-ERα ^LBD than to wt-ERα ^LBD: approximately 6 times

B1: wt-ERα ^LBD: recombinant His6-tagged polypeptide fragment 303-547 (ligand binding domain) of human ERα, wild type (protein, UniProt P03372 303-547, looked up, fragment)
chain: KNSLALSLTADQMVSALLDAEPPILYSEYDPTRPFSEASMMGLLTNLADRELVHMINWAKRVPGFVDLTLHDQVHLLECAWLEILMIGLVWRSMEHPGKLLFAPNLLLDRNQGKCVEGMVEIFDMLLATSSRFRMMNLQGEEFVCLKSIILLNSGVYTFLSSTLKSLEEKDHIHRVLDKITDTLIHLMAKAGLTLQQQHQRLAQLLLILSHIRHMSNKGMEHLYSMKCKNVVPLYDLLLEMLDAH
modifications: ligand binding domain His6 tag
[1]; CD at 222 nm, 25 to 90°C, Boltzmann-type fit
  melting temperature (Tm): 59.5±1.5 °C
[1]; versus full-length ERα
  melting temperature higher than that previously reported for the full-length ERα protein: about 20 °C
